System: colitis in C.B-17 SCID mice
Test: CD4+ CD45Rb high T cell-reconstituted SCID colitis model mice
Assay type: in vivo, mouse
Experimental: Treatment of Crohn's disease in CD4^+ CD45Rb^high T cell-reconstituted SCID colitis model mice: Spleen cells were prepared from normal female BALB/c mice. For cell purification, the following anti-mouse antibodies were used to label non-CD4^+ T cells: B220 (RA3-6B2), CD11b (M1/70), and CD8α (53-6.72). All antibodies were obtained from BioSource (Camarillo, Calif.). M450 anti-rat IgG-coated magnetic beads (Dynal, Oslo, Norway) were used to bind the antibodies and negative selection was accomplished using an MPC-1 magnetic concentrator. The enriched CD4^+ cells were then labeled for cell sorting with FITC-conjugated CD45RB (16A, Pharmingen, San Diego, Calif.) and PE-conjugated CD4 (CT-CD4, Caltag, Burlingame, Calif.). CD4^+ CD45RB^high cells were operationally defined as the upper 40% of CD45Rb-staining CD4^+ cells and sorted under sterile conditions by flow cytometry. Harvested cells were resuspended at 4×10^6/mL in PBS and injected 100 μL intraperitoneally into female C.B-17 SCID mice. Pyrimidine compounds of this invention (e.g., Compound 12) and/or vehicle was orally administered once a day, 5 days per week, starting the day following the transfer. The transplanted SCID mice were weighed weekly and their clinical condition was monitored.
Colon tissue samples were fixed in 10% buffered formalin and embedded in paraffin. Sections (4 μm) collected from ascending, transverse, and descending colon were cut and stained with hematoxylin and eosin. The severity of colitis was determined based on histological examination of the distal colon sections, whereby the extent of colonic inflammation was graded on a scale of 0-3 in each of four criteria: crypt elongation, cell infiltration, depletion of goblet cells, and the number of crypt abscesses.
LP lymphocytes were isolated from freshly obtained colonic specimens. After removal of payer's patches, the colon was washed in Ca/Mg-free HBSS, cut into 0.5 cm pieces and incubated twice in HBSS containing EDTA (0.75 mM), DTT (1 mM), and antibiotics (amphotericin 2.5 μg/mL, gentamicin 50 μg/mL from Sigma) at 37° C. for 15 min. Next, the tissue was digested further in RPMI containing 0.5 mg/mL collagenase D, 0.01 mg/mL DNase I (Boehringer Manheim), and antibiotics at 37° C. LP cells were then layered on a 40-100% Percoll gradient (Pharmacia, Uppsala, Sweden), and lymphocyte-enriched populations were isolated from the cells at the 40-100% interface.
To measure cytokine production, 48-well plates were coated with 10 μg/mL murine anti-CD3ε antibody (145-2C11) in carbonate buffer (PH 9.6) overnight at 4° C. […] Murine IFNγ was measured using an ELISA kit from Endogen (Cambridge, Mass.), according to the manufacturer's instructions.

In the case of `Cc1cccc(/C=N/Nc2cc(N3CCOCC3)nc(CCOC(=O)Nc3cccc(C(F)(F)F)c3)n2)c1` [Compound 12, (3-Trifluoromethyl-phenyl)-carbamic acid 2-{4-[N′-(3-methyl-benzylidene)-hydrazino]-6-morpholin-4-yl-pyrimidin-2-yl}-ethyl ester], the “IFNγ production by LP cells in response to anti-CD3 and anti-CD28 antibody” value (LP cells from treated mice, ex vivo, 48 h culture) is reported as “greatly diminished the production”, the “colonic inflammation (histological analysis)” value (oral, once a day, 5 days per week, compared to vehicle control) is reported as “reduced colonic inflammation” and the colon-to-body weight ratio (oral, consistent with histological score) is reported as “attenuation”. The “suppressive effect on colonic inflammation at 10 mg/kg” value (oral, dose of 10 mg/kg) was “substantial reduction”.

— US7872005B2, “2-substituted heteroaryl compounds” (Synta Pharmaceuticals Corporation, priority 2004, dated 2011)
